Series [1] has as its target Protein S100-A4 (Homo sapiens, UniProt P26447). Description: human S100A4 peptide interaction inhibition curves – biochemical, fluorescence polarization, cherry-picked hits, dose response (AID 687001). The series is classed as functional.
Series [2] addresses T1, ATP-dependent translocase ABCB1 (Homo sapiens, UniProt P08183). Nature of the series: inhibition of P-gp mediated JC-1 efflux – Jurkat-DNR cells, flow cytometry, dose response (AID 1689). The series is classed as functional. A general note: Flow cytometry measures light scatter and fluorescence of single cells or particles in a stream.
The target in series [3] is Broad substrate specificity ATP-binding cassette transporter ABCG2 (Homo sapiens, UniProt Q9UNQ0). Description: blockers of JC-1 export by ABCG2 – Ig-MXP3 cells, flow cytometry, dose response (AID 1690). The series is classed as functional.
Broad substrate specificity ATP-binding cassette transporter ABCG2, sequence (Q9UNQ0 whole entry): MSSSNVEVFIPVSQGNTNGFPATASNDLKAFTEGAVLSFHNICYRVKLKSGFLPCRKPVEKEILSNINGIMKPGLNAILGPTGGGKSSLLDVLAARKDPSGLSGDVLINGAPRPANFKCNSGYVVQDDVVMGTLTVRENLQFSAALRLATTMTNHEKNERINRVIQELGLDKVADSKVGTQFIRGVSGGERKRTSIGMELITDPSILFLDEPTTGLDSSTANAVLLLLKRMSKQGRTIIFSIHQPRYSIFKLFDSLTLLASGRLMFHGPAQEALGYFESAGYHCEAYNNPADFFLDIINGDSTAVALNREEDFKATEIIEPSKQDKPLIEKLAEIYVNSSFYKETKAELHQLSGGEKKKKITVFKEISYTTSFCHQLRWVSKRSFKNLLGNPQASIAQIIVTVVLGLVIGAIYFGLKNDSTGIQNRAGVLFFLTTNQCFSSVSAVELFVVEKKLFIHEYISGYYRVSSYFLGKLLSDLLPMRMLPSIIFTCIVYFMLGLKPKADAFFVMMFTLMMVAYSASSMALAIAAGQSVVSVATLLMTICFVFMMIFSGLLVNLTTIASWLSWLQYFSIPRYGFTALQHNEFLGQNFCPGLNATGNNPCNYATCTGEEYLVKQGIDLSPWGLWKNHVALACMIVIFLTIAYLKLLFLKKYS
Series [4] addresses Beta-lactamase (Salmonella choleraesuis (strain SC-B67), UniProt Q5J463). Nature of the series: Epi-absorbance-based counterscreen for selective VIM-2 inhibitors: dose response biochemical high throughput screening assay to identify inhibitors of TEM-1 serine-beta-lactamase.
The target of series [5] is T2, Beta-lactamase (Pseudomonas aeruginosa, UniProt Q79MP6). Nature of the series: inhibition of IMP-1 beta-lactamase activity – biochemical, epi-absorbance, selectivity assay for VIM-2 inhibitor project, dose response (AID 1920).
T2 sequence (Q79MP6 whole entry): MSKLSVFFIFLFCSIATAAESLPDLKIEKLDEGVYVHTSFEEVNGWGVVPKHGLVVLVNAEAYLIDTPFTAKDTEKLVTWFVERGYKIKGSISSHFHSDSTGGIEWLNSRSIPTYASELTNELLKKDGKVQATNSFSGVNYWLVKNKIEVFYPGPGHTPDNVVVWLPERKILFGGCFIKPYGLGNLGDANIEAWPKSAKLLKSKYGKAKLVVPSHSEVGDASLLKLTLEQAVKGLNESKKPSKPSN
The target in series [6] is T2, Beta-lactamase. Description: […] counterscreen for selective VIM-2 inhibitors: dose response biochemical high throughput screening assay to identify inhibitors of IMP-1 metallo-beta-lactamase. Background: Counterscreens check selectivity or assay interference.
For series [7], the target named is T3, Sentrin-specific protease 1 (Homo sapiens, UniProt Q9P0U3). Description: SENP1 catalytic domain blockers, concentration series – biochemical, kinetic FRET, dose response (AID 651697). The series is classed as functional. To be noted: read-out: IC50_Mean.
T3 sequence (Q9P0U3 whole entry, the tested form may be a part): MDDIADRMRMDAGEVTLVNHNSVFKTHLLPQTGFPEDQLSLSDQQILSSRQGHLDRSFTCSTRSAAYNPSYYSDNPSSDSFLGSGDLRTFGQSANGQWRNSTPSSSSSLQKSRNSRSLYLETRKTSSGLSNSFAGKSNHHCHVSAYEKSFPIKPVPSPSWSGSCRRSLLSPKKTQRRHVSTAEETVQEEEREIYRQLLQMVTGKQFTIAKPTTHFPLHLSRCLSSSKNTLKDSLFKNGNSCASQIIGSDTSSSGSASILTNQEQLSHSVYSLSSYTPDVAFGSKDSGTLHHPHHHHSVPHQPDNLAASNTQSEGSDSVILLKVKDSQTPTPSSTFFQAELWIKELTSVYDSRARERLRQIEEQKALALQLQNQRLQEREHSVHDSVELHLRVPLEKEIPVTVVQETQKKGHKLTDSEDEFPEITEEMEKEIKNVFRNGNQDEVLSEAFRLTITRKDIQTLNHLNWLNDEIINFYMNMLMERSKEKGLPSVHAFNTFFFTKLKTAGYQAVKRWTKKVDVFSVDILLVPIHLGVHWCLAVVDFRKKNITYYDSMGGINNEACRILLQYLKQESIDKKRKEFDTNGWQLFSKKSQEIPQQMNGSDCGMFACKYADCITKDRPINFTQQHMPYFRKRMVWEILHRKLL
The target of series [8] is T3, Sentrin-specific protease 1. Description: Dose response confirmation of small molecule inhibitors of the catalytic domain of the SUMO protease, SENP1 in a FRET assay. The series is classed as functional. To be noted: read-out: IC50_Mean.
Series [9] addresses T1, ATP-dependent translocase ABCB1. Description: inhibition of BCRP-mediated JC-1 efflux – Ig-MXP3 cells, flow cytometry, set 2, dose response (AID 504566).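 Further: flow cytometry median green fluorescence of retained JC-1 dye; potency of efflux pump inhibition measured as rising substrate retention.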 The series is classed as functional. To be noted: read-out: EC50_MICROM_.
Series [10] shares this target. Nature of the series: P-gp JC-1 efflux blockade concentration-response – Jurkat-DNR cells, flow cytometry, set 2, dose response (AID 504569).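 Further: potency of pump inhibitors that raise cellular JC-1 green fluorescence up to the nicardipine level.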 The series is classed as functional. To be noted: read-out: EC50_MICROM_.
Series [11] in a line: luciferase reporter signal suppression in cells – H4 neuroglioma cells, luminescence, dose response (AID 1990). The series is classed as functional, cell-based.
In series [12] the test system is Streptococcus sp. 'group A'. Nature of the series: Streptococcus pyogenes SK(-)GAS viability under kanamycin – luminescence, BacTiterGlo, confirmation, counter-screen for streptokinase expression inhibitor project, dose response (AID 1900). The series is classed as functional, organism-based.
Series [13] in a line: Luminescence Cell-Based Dose Response HTS to Identify Inhibitors of 5'UTR Stem-Loop Driven Prion Protein mRNA Translation in H4 Neuroglioblastoma Cells. [Related pubchem assays: 1827 (Project Summary), 1813 (Primary HTS)]. The series is classed as functional.
A short description of series [14]: alpha-synuclein stem-loop luciferase translation blockers – H4 neuroglioma cells, luminescence, confirmation (AID 1988). The series is classed as functional, cell-based.
In series [15] the target is T4, Streptokinase A (Streptococcus pyogenes serotype M1, UniProt P10520).
T4 sequence (P10520 whole entry): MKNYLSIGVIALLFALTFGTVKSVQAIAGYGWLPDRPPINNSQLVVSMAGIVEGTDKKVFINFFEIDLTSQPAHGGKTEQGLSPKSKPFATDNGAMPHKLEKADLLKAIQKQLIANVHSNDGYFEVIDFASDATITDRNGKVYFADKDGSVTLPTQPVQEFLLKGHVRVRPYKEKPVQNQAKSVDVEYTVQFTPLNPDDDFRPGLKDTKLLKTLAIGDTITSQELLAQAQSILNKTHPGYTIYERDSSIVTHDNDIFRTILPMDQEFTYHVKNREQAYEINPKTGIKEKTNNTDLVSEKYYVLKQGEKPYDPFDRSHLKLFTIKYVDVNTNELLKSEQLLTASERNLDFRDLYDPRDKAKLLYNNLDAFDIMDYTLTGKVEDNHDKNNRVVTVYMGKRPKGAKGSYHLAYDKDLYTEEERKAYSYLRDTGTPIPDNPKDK
Nature of the series: viability-normalized secreted streptokinase activity reduction – plasminogen activation absorbance, OD405, dose response (AID 1914).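 Further: secreted streptokinase activity via plasminogen activation per viability signal from cell pellet.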 The series is classed as functional, Streptococcus pyogenes M1 GAS.

The test system of series [16] is Streptococcus. Description: GAS UMAA2166 growth inhibition – luminescence, BacTiterGlo, counter-screen for streptokinase expression inhibitor project, dose response (AID 1915).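 Further: potency for reduction of bacterial viability or growth.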 The series is classed as functional, organism-based.
For series [17], the target named is Cytochrome P450 2C19 (Homo sapiens, UniProt P33261). Description: Cytochrome panel assay with activity outcomes. Panel member name: p450-cyp2c19 Compounds with AC50 equal or less than 10 uM are considered active. The series is classed as functional.
Cytochrome P450 2C19, sequence (P33261 whole entry): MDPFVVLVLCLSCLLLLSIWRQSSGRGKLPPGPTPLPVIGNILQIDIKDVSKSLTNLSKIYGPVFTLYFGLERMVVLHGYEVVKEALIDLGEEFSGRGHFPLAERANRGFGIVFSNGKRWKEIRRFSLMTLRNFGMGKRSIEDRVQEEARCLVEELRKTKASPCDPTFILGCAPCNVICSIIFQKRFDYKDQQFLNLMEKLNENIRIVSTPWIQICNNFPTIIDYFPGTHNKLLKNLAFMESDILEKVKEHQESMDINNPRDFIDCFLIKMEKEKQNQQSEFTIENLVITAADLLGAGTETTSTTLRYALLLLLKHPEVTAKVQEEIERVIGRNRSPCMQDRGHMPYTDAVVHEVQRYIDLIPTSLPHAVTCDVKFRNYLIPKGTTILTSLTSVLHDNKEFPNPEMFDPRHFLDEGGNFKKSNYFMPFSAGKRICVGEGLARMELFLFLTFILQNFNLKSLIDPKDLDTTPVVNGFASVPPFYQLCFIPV
The subject of series [18] is BJ. Description: growth inhibition of engineered Ras-driven BJ cells – cell-based, alamar blue fluorescence, cherrypicked samples, dose response (AID 2631).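 Further: confirmatory dose-response assay in RAS-dependent BJ fibroblasts engineered with TERT, LT and ST, with cytotoxicity read by fluorescence.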 The series is classed as functional. To be noted: Homo sapiens.
Series [19] deals with T5, Low molecular weight phosphotyrosine protein phosphatase (Homo sapiens, UniProt P24666).
T5 sequence (P24666 whole entry): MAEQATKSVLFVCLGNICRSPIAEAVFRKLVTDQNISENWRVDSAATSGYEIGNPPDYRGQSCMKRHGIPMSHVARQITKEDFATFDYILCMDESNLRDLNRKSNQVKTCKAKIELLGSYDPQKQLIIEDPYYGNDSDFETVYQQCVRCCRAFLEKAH
The series is classed as functional. To be noted: read-out: IC50_Mean.

The target of series [20] is T5, Low molecular weight phosphotyrosine protein phosphatase. The series is classed as functional. To be noted: read-out: IC50_Mean. The source holds these as a separate data set.
The nature of series [21]: reduced cellular PGC1a acetyl-lysine signal – cell-based, cherry-picked samples, dose response (AID 720514).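 Further: potency may reflect raised or lowered acetylation signal.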 The series is classed as functional.
Series [22] is described as follows: rise of 2N DNA cells, HeLa – IC50, dose response (AID 1117349). The series is classed as functional, cell-based.
Series [23] can be described thus: rise of 4N DNA cells, HeLa – IC50, dose response (AID 1117351). The series is classed as functional, cell-based.
In series [24] the target is Cytochrome P450 2D6 (Homo sapiens, UniProt P10635).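 Further: CYP2D6 member of a cytochrome P450 panel assay.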
Cytochrome P450 2D6, sequence (P10635 whole entry): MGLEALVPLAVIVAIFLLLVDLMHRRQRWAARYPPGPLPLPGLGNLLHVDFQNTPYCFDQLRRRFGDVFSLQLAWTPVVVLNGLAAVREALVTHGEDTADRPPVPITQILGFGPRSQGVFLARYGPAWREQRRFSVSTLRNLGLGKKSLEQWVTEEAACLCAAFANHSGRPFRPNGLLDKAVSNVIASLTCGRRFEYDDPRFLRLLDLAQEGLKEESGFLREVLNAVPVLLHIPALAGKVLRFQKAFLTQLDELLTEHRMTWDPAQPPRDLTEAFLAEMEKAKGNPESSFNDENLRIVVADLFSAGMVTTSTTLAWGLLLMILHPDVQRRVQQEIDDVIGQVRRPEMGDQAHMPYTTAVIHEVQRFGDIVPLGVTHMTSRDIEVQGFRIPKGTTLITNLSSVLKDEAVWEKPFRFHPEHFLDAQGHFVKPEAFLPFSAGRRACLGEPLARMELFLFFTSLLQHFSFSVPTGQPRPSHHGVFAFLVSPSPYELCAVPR
Series [25] addresses T6, Cytochrome P450 1A2 (Homo sapiens, UniProt P05177).
T6 sequence (P05177 whole entry): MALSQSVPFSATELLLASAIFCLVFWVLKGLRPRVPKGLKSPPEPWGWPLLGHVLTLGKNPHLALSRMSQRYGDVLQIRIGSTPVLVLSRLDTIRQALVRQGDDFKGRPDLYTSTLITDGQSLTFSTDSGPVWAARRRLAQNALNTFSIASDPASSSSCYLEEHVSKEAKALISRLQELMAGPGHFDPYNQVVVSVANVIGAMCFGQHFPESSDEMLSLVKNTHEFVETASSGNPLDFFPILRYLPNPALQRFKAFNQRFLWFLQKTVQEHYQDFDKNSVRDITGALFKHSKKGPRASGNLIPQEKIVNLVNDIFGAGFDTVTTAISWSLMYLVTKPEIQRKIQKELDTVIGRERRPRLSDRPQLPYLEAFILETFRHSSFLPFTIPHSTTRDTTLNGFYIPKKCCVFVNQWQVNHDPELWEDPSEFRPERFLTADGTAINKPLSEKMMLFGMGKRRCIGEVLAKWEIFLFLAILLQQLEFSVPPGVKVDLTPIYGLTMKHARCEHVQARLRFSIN

In series [26] the target is Cytochrome P450 2C9 (Homo sapiens, UniProt P11712).
Cytochrome P450 2C9, sequence (P11712 whole entry): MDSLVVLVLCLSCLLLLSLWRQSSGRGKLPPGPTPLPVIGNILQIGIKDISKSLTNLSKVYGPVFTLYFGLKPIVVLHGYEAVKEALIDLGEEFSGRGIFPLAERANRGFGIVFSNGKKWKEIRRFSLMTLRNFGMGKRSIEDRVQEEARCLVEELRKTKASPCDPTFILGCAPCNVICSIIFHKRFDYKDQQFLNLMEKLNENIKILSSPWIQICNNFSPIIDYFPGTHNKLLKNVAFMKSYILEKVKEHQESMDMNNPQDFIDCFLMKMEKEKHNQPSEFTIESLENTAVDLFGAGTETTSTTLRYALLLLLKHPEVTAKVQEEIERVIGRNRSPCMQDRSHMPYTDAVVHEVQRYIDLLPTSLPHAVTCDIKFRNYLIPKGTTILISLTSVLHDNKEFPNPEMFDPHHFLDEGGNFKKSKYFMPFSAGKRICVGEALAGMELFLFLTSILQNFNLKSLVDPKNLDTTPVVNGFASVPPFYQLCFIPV

The source made the active and inactive calls. Some results are limits rather than exact numbers.

T1 sequence (P08183 whole entry): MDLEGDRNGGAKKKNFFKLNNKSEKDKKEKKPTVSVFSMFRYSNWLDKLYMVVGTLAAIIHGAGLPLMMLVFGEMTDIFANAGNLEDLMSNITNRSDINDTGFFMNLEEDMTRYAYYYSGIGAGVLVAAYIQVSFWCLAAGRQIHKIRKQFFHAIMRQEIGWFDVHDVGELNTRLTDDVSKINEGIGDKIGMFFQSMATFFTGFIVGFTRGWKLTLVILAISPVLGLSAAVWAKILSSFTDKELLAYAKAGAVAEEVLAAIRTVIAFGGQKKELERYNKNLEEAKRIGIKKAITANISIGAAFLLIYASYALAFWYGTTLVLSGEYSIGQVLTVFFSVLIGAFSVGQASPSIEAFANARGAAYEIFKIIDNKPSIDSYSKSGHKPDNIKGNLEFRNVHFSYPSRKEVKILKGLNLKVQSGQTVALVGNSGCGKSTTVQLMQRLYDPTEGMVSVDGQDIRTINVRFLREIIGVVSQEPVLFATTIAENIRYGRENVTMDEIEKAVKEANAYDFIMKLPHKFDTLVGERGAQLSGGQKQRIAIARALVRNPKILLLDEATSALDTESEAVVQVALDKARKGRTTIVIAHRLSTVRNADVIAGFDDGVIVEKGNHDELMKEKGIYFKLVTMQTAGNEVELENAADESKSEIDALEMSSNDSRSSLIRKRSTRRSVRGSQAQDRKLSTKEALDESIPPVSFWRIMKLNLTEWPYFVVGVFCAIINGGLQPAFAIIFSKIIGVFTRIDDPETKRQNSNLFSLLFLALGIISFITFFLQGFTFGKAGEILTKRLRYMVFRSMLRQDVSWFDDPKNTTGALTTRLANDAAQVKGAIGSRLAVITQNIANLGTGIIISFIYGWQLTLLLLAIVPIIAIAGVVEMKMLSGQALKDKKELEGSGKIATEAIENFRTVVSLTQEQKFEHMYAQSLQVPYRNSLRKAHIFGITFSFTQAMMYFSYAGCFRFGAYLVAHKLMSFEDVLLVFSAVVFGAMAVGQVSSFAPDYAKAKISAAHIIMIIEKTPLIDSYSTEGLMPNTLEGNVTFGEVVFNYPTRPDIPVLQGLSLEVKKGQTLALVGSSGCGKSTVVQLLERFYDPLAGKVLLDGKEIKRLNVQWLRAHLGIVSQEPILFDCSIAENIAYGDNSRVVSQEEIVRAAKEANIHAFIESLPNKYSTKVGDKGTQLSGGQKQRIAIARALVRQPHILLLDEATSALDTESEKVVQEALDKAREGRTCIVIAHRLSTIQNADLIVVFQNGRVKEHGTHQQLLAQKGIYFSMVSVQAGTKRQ
Protein S100-A4, sequence (P26447 whole entry): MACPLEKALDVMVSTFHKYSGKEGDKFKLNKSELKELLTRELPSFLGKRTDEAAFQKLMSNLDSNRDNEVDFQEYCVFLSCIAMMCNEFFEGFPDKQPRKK
Beta-lactamase (Salmonella choleraesuis (strain SC-B67), UniProt Q5J463), sequence (Q5J463 whole entry): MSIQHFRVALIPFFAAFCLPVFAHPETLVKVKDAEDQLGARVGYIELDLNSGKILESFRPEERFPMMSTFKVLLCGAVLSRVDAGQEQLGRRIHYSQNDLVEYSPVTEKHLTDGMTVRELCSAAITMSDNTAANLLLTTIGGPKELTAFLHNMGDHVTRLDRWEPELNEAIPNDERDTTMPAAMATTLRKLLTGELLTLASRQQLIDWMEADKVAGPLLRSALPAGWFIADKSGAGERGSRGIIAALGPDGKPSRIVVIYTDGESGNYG

The AC50 is the concentration giving half of the maximal activity seen. Turning to `CC1(C)c2ccccc2N2CC(=O)N(CC(N)=O)C21C` (stereo unspecified), the AC50 in series [1] was 1.93 µM (active).
Consider `COc1ccc(CN2C(=O)c3ccccc3C2=O)cc1C(=O)Nc1ccccc1N1CCOCC1`, for which the EC50 is 0.428 µM (active) in [2] and 0.34 µM (inactive) in [3].
Take `Cc1ccc(S(=O)(=O)n2[nH]c(=O)cc2NC(=O)c2cccs2)cc1`: the IC50 in series [4], in [5] and in series [6] was > 59.6 µM (inactive) each time.
As for `N=c1oc2ccc([N+](=O)[O-])cc2cc1C(=O)NCc1ccccc1`, the IC50 is 9.4 µM (active) in [7] and 2.45 µM (active) in series [8].
For the compound `COc1cccc(-c2cc3nc(-c4ccccc4)cc(N4CCN(C(=O)c5ccco5)CC4)n3n2)c1`, the EC50 in series [9] is 1.17 µM (active); in [10], 4.32 µM (active).
Turning to `CCc1nc(N)nc(N)c1-c1ccc(Cl)cc1` [PYRIMETHAMINE], the EC50 was 3.81 µM (active) in series [11]; 3.09 µM (active) in series [12]; 10.5 µM (active) in series [13]; 0.2 µM (active) in [14]; > 150 µM (not active) in series [15]; 51.2 µM (active) in series [16]. Besides, the EC50 in [18] was > 133 µM (inactive). Besides, the AC50 result in [17] was “inactive”; in series [21], 23 µM (active); in [24] it was 7.94 µM (inconclusive); in series [25] it was 10 µM (inconclusive); in series [26], “inactive”. The IC50 in [19] was 32.9 µM (inactive); in [20], 16.5 µM (active); in [22], > 10 µM (inactive); in series [23], > 10 µM (inactive).

Source of the values: ChEMBL document CHEMBL1201862, “PubChem BioAssay data set” (2004).
